Each structure is given as a SMILES string.

In the assay the target is T1, MET kinase (Homo sapiens, UniProt P08581).
T1 construct: Sf9 insect cell culture expressing the kinase domain of human Met; 6x Histidine tag (TEV-cleavable) (cleaved yes); made in house; host or cells: Sf9 insect cells
T1 sequence (P08581 1078-1345 limits assumed): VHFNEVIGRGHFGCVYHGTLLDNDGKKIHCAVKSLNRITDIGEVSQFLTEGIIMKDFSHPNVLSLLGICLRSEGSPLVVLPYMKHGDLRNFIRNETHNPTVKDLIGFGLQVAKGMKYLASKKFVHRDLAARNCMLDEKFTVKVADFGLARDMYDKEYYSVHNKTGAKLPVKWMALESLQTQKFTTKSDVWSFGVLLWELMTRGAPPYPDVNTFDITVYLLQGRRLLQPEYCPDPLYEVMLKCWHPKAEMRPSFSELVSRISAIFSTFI
Put plainly: Met Bioassay (luminescence-based enzyme assay, Kinase-Glo). It is filed as biochemical. To be noted: 10 μM ATP. The source says: In addition to the c-Abl PK/LDH coupled assay (above), homogeneous luminescence-based inhibitor screening assays were developed for c-Abl, MET, AurA, and PDK1 kinases (among others). Each of these assays made use of an ATP depletion assay (Kinase-Glo™, Promega Corporation, Madison, Wis.) to quantitate kinase activity. The Kinase-Glo™ format uses a thermostable luciferase to generate luminescent signal from ATP remaining in solution following the kinase reaction. The luminescent signal is inversely correlated with the amount of kinase activity.
Materials: Poly Glu-Tyr (4:1) substrate (Sigma Cat# P-0275), ATP (Sigma Cat#A-3377, FW=551), HEPES buffer, pH 7.5, Bovine serum albumin (BSA) (Roche 92423420), MgCl2, Staurosporine (Streptomyces sp. Sigma Cat#85660-1MG), white Costar 384-well flat-bottom plate (VWR Cat#29444-088). MET kinase (see below), Kinase-Glo™ (Promega Cat#V6712).
Stock Solutions: 10 mg/ml poly Glu-Tyr in water, stored at −20° C.; 100 mM HEPES buffer, pH 7.5 (5 ml 1M stock+45 ml miliQH2O); 10 mM ATP (5.51 mg/ml in dH2O) stored at −20° C. (diluted 50 μl into total of 10 ml miliQH2O daily=50 μM ATP working stock); 1% BSA (1 g BSA in 100 ml 0.1M HEPES, pH 7.5, stored at −20° C.), 100 mM MgCl2; 200 μM Staurosporine, 2× Kinase-Glo™ reagent (made fresh or stored at −20° C.).
Standard Assay Setup for 384-well format (20 μl kinase reaction, 40 μl detection reaction): 10 mM MgCl2; 0.3 mg/ml poly Glu-Tyr; 0.1% BSA; 1 μl test compound (in DMSO); 0.4 μg/ml MET kinase; 10 μM ATP; 100 mM HEPES buffer. Positive controls contained DMSO with no test compound. Negative controls contained 10 μM staurosporine. The kinase reactions were initiated at time t=0 by the addition of ATP. Kinase reactions were incubated at 21° C. for 60 min, then 20 μl of Kinase-Glo™ reagent were added to each well to quench the kinase reaction and initiate the luminescence reaction. After a 20 min incubation at 21° C., the luminescence was detected in a plate-reading luminometer.
The cell pellets produced from half of a 12 L Sf9 insect cell culture expressing the kinase domain of human Met were resuspended in a buffer containing 50 mM Tris-HCl pH 7.7 and 250 mM NaCl, in a volume of approximately 40 ml per 1 L of original culture. One tablet of Roche Complete, EDTA-free protease inhibitor cocktail (Cat# 1873580) was added per 1 L of original culture. The suspension was stirred for 1 hour at 4° C. Debris was removed by centrifugation for 30 minutes at 39,800×g at 4° C. The supernatant was decanted into a 500 ml beaker and 10 ml of 50% slurry of Qiagen Ni-NTA Agarose (Cat# 30250) that had been pre-equilibrated in 50 mM Tris-HCl pH 7.8, 50 mM NaCl, 10% Glycerol, 10 mM Imidazole, and 10 mM Methionine, were added and stirred for 30 minutes at 4° C. The sample was then poured into a drip column at 4° C. and washed with 10 column volumes of 50 mM Tris-HCl pH 7.8, 500 mM NaCl, 10% Glycerol, 10 mM Imidazole, and 10 mM Methionine. The protein was eluted using a step gradient with two column volumes each of the same buffer containing 50 mM, 200 mM, and 500 mM Imidazole, sequentially. The 6× Histidine tag was cleaved overnight using 40 units of TEV protease (Invitrogen Cat#10127017) per 1 mg of protein while dialyzing in 50 mM Tris-HCl pH 7.8, 500 mM NaCl, 10% Glycerol, 10 mM Imidazole, and 10 mM Methionine at 4° C. The 6× Histidine tag was removed by passing the sample over a Pharmacia 5 ml IMAC column (Cat# 17-0409-01) charged with Nickel and equilibrated in 50 mM Tris-HCl pH 7.8, 500 mM NaCl, 10% Glycerol, 10 mM Imidazole, and 10 mM Methionine. The cleaved protein bound to the Nickel column at a low affinity and was eluted with a step gradient. The step gradient was run with 15% and then 80% of the B-side (A-side=50 mM Tris-HCl pH 7.8, 500 mM NaCl, 10% Glycerol, 10 mM Imidazole, and 10 mM Methionine; B-side=50 mM Tris-HCl pH 7.8, 500 mM NaCl, 10% Glycerol, 500 mM Imidazole, and 10 mM Methionine) for 4 column volumes each. […]
With `COc1ccccc1-c1c[nH]c2ncc(-c3ccc(CN(C)C)cc3)cc12` [AE8], the IC50 is less than 1000 nM.

Take `O=C(c1cncc(-c2cnc3[nH]cc(-c4ccc5cc[nH]c5c4)c3c2)c1)N1CCOCC1` [AE14]: the IC50 is less than 1000 nM.

`c1cc2cc(-c3c[nH]c4ncc(-c5ccc6[nH]cnc6c5)cc34)ccc2[nH]1` [AE22]: the IC50 fell in the range of 1000 to 5000 nM.

Regarding `COc1ccccc1-c1c[nH]c2ncc(-c3ccc(O)c(CN4CCCN(C)CC4)c3)cc12` [AE41], the IC50 fell in the range of 1000 to 5000 nM.

For `COc1ccccc1-c1c[nH]c2ncc(-c3cccc(C(=N)N4CCCCC4)c3)cc12` [AE42], the IC50 is less than 1000 nM.

For `Oc1cccc(-c2cnc3[nH]cc(-c4ccc(O)c(F)c4)c3c2)c1` [AE48], the IC50 is less than 1000 nM.

In turn, `COc1cc(-c2cnc3[nH]cc(-c4ccc(O)cc4)c3c2)ccc1O` [AE58] had an IC50 of 1000 to 5000 nM.

`COc1cc(-c2cnc3[nH]cc(-c4ccccc4OC)c3c2)ccc1OCCN1CCCC1` [AE65] showed a concentration for half-maximal inhibition (IC50) of 1000 to 5000 nM.
